Here are results for 2 compounds from patent US20030149075A1, “Zoniporide mesylate pharmaceutical compositions and processes for improving solubility of zoniporide” (Pfizer Inc., priority 2002, published 2003).

Structures can show the parent of a compound that is named as a salt.

The nature of series [1]: Aqueous solubility of Zoniporide / Zoniporide mesylate, including pH adjustment with acids. The series is classed as physicochemical. The text has this:
The most commercially feasible and the most pharmaceutically acceptable means, in this particular instance, for increasing solubility of Zoniporide was via pH adjustment.
Further additions of methanesulfonic acid further improved solubility with decreasing pH.
The phrase “increase (or increasing) the solubility” means increasing the solubility of Zoniporide or Zoniporide mesylate to a value greater than the solubility of Zoniporide mesylate in water (i.e. greater than about 18 mgA/mL).
(§1) The use of methanesulfonic acid to lower the pH of pharmaceutical formulations is non-traditional in the pharmaceutical field. […] Typically, the pH of pharmaceutical intravenous formulations is not lower than about pH of 3, because of injection-site toleration problems that are inherent in low pH formulations. […] Reducing the pH below about 2, however, can further increase the concentration of Zoniporide, but may cause injection site toleration issues.

Series [2] in a line: Injection-site toleration of low-pH Zoniporide formulations. Format: in vivo. The following applies: formulations adjusted with methanesulfonic acid to as low as about pH 2.
Excerpt: as §1

For `N=C(N)NC(=O)c1cnn(-c2cccc3ncccc23)c1C1CC1` [Zoniporide, N-(5-cyclopropyl-1-quinolin-5-yl-1H-pyrazole-4-carbonyl)-guanidine], the “change in solubility on pH adjustment with methanesulfonic acid” value in series [1] (addition of methanesulfonic acid, further additions further improved solubility with decreasing pH) was “increase in solubility”. The “change in solubility on pH adjustment with typical pH adjusters” value in series [1] (hydrochloric acid, sulfuric acid, phosphoric acid, aqueous solution, pH range acceptable for infusion) was “no significant increase in solubility”. The injection-site toleration result in series [2] was “without the expected injection-site toleration issues”.

Take `N=C(N)NC(=O)c1cnn(-c2cccc3ncccc23)c1C1CC1` [Zoniporide mesylate]: in series [1] (in water, mgA/mL = mg/mL of active compound Zoniporide), the “solubility of Zoniporide mesylate in water” value is recorded as “about 18 mgA/mL”.
